Like-named read-outs stand apart in the source and are kept apart here.
What was measured:
[1] = Microsomal stability, human liver microsomes; assay type: in vitro ADME; settings: 0.5 mg/mL protein, read-out: Microsomal stability (T1/2 min) Human
Description: (§1) Intrinsic clearance studies are performed individually with mouse, rat and human liver microsomes at 0.5 mg/mL protein concentration. Briefly, for protein concentration 0.5 mg/mL assay, liver microsomal protein (12.5 uL), NAPDH (50 uL) and phosphate buffer (435 uL) are co-incubated (pre-incubation) in a 96-well deep well plate in an orbital incubator (10 min, 37° C.). Reactions are initiated by the addition of 2.5 uL of test item working stock solution (100 uM). Aliquots (50 uL) are withdrawn from the reaction tube at 0, 5, 10, 20 and 30 minutes and the reaction is immediately terminated by transferring to a 96 deep well plate containing 50 uL of acetonitrile. Verapamil is used as a positive control in mouse, rat and human liver microsomes. To the quenched samples internal standard is added and vortex mixed followed by centrifugation at 4000 rpm for 10 minutes and an aliquot of supernatant is taken for LC-MS/MS analysis. Samples are analyzed by a suitable fit-for-purpose multiple reaction monitoring method developed on LC-MS/MS using and API 4000 mass spectrometer to estimate the area ratio (analyte peak area/internal standard peak area).

[2] = Microsomal stability, rat liver microsomes; assay type: in vitro ADME; settings: 0.5 mg/mL protein, read-out: Microsomal stability (T1/2 min) Rat
Description: as §1

CYP2C9 = CYP2C9 (Homo sapiens (Human), UniProt P11712); test: CYP inhibition, CYP2C9; assay type: in vitro ADME; settings: microsomes, metabolite 4-hydroxy diclofenac
CYP2C9, sequence (P11712 whole entry): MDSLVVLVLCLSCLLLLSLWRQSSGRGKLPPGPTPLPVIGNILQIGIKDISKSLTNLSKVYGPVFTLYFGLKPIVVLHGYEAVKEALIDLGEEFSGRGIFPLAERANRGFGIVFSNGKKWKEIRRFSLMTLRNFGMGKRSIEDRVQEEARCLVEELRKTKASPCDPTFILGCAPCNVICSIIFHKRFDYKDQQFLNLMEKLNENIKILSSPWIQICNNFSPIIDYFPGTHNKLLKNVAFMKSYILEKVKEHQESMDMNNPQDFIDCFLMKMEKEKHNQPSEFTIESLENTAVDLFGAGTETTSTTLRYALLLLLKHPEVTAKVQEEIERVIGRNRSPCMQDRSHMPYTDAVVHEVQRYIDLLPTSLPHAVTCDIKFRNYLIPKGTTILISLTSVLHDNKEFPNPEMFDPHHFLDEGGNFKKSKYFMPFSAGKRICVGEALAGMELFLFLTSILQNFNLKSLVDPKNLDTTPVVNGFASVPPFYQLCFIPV
Description: (§2) For each isozyme, microsomes-buffer-substrate mixture (MBS mix) is prepared by premixing appropriate volumes of buffer, microsomes and substrate. MBS mixture (179 μL) is transferred to a 96-well reaction plate. An aliquot (1 μL) is spiked from corresponding wells of Test Item stock solution plate to reaction plate. The reaction plate is pre-incubated for 5 minutes at 37° C. Reaction is initiated by the addition of 20 μL of NADPH solution. Each experiment is performed in duplicate. Reaction plate is incubated for predetermined time at 37° C. and quenched using either 200 μL of acetonitrile (for CYP2C9, CYP2D6, CYP2C19 and CYP3A4) or 200 μL of a mixture of 70:30 1% formic acid:acetonitrile (for CYP1A2).

hERG (IKr current) = hERG (IKr current) (Homo sapiens (Human), UniProt Q12809); test: hERG inhibition, patch clamp (Port-a-Patch) on HEK cells stably transfected with the hERG clone, IKr current; assay type: cell-based; settings: human, HEK cells stably transfected with the hERG clone, pH 7.4, IKr current
hERG (IKr current), sequence (Q12809 whole entry): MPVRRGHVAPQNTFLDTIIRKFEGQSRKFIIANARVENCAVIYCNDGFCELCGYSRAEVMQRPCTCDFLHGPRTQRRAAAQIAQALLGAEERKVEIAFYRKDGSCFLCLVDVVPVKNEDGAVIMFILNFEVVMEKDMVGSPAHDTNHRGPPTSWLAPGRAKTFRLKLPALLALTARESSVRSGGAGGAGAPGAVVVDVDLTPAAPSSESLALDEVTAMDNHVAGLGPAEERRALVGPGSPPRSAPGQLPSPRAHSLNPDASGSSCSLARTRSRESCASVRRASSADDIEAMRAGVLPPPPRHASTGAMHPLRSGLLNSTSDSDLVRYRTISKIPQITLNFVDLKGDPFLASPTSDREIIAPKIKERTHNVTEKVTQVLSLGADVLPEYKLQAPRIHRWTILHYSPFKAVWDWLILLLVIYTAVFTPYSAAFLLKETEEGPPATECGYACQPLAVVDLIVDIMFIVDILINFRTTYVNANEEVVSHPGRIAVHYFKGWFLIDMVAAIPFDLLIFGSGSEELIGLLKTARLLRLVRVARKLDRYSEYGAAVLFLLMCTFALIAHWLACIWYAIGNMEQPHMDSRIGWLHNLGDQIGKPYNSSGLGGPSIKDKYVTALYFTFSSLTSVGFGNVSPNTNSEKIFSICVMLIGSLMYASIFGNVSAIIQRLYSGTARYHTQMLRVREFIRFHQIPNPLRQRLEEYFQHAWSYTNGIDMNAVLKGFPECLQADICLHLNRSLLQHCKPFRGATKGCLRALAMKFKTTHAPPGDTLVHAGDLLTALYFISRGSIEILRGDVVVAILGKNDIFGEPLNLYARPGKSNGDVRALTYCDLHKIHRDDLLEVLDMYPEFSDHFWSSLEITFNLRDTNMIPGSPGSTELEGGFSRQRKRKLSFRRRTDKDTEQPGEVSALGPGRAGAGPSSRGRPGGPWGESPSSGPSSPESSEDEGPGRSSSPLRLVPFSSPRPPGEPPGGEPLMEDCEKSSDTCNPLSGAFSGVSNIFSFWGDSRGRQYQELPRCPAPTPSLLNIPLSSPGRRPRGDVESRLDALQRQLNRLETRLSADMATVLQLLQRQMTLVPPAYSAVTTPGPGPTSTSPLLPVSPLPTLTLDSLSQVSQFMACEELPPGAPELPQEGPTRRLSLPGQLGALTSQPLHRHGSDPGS
Description: (§3) HEK cells stably transfected with the hERG clone are maintained at 37±2° C. in a 5% CO2 incubator. The cells are initially revived and grown in DMEM/F12+GlutaMAX-I medium supplemented with 9% fetal bovine serum (FBS) and antibiotics (Penicillin 100 IU/mL Streptomycin 100 μg/mL) (complete medium). Furthermore, the cells are continuously maintained and passaged in complete media in addition to the appropriate concentration of selection antibiotic (Geneticin (G418) 200 μg/mL) (Selection media). The cells are sub cultured every 2-3 days and medium is changed with complete medium at least a day before the experiment.
(§4) The cells are harvested on the day of experiment, dislodged and suspended in sterile filtered external solution (NaCl 140 mM, KCl 4 mM, MgCl2 1 mM, CaCl2 2 mM, D-Glucose monohydrate 5 mM, Hepes/NaOH 10 mM, pH 7.4, Osmolarity:298+/−5 mOsmol).
(§5) The NPC®-1 chip of the Port-a-Patch® is filled with 5 μL of internal solution (KCl 50 mM, NaCl 10 mM, KFl 60 mM, EGTA 20 mM, Hepes/KOH 10 mM, pH 7.2, Osmolarity: 285+/−5 mOsmol) and it is screwed onto the chip holder. The Faraday cage is then fixed on the chip holder, such that the external electrode is placed near to the chip aperture. 5 μL of external solution is added to the center of the aperture so that the external electrode is also in contact with the solution.
(§6) The experiment is be initiated. […] The suction automatically attracts a cell to the aperture, resulting in an increase in the chip resistance. When the cell is captured and the set threshold for the resistance is reached, the software recognizes this increase in resistance and proceeds to the next step of the sealing procedure. 20 μL of seal enhancer solution (NaCl 80 mM, KCl 4 mM, MgCl2 10 mM, CaCl2) 35 mM, Hepes (Na+salt)/HCl pH 7.4, Osmolarity: 298+/−5 mOsmol) is added 2-3 times. When the threshold resistance is reached, Patch Control automatically moves to the step of improving the seal. When the desirable resistance (Rpip) is reached, whole cell mode is attained and maintained.
(§7) Finally, hERG protocol is selected to run the experiment. The seal enhancer solution is replaced with 20 μL external solution after 2-4 rinses and then the test item is added (from lower to higher concentration) and checked for current inhibition. All the experiments are performed at ambient temperature (22-25° C.).
(§8) A schematic diagram (FIG. 3) of the Pulse protocol: Cells are stimulated every 10 seconds using the following protocol. The holding potential, sweep intervals and the depolarization/repolarization potentials are furnished in the table below.
(§9) Once the stable current is attained (at least 2-5 minutes) vehicle control is added and the current measured till the stable current is achieved. 3-5 consecutive data points from the last stable current phase are considered for further analysis. […] The system performs on-line analysis for several parameters which include functions that acquire data from traces and functions that perform calculations on the results of other functions.

hERG = hERG (Homo sapiens (Human), UniProt Q12809); test: as above; assay type: cell-based; settings: concentrations tested 1, 3, 10 and 30 μM
hERG, sequence (Q12809 whole entry): as above
Description: as §3, §4, §5, §6, §7, §8, §9

CYP1A2 = CYP1A2 (Homo sapiens (Human), UniProt P05177); test: CYP inhibition, CYP1A2; assay type: in vitro ADME; settings: microsomes, metabolite acetaminophen
CYP1A2, sequence (P05177 whole entry): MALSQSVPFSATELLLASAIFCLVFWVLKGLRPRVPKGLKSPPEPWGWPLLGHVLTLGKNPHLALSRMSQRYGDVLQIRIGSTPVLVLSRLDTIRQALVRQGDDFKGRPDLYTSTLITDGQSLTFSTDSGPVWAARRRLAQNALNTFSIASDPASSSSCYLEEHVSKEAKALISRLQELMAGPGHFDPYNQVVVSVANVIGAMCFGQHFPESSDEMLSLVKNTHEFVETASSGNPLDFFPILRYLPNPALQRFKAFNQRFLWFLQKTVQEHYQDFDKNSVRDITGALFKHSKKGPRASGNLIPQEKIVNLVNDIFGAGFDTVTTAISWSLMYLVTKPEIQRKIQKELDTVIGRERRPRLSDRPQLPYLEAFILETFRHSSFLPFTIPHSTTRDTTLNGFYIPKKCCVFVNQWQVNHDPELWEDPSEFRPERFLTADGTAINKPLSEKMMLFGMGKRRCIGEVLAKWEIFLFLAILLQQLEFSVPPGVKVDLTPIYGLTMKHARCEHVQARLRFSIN
Description: as §2

CYP2D6 = CYP2D6 (Homo sapiens (Human), UniProt P10635); test: CYP inhibition, CYP2D6; assay type: in vitro ADME; settings: microsomes, metabolite dextrorphan
CYP2D6, sequence (P10635 whole entry): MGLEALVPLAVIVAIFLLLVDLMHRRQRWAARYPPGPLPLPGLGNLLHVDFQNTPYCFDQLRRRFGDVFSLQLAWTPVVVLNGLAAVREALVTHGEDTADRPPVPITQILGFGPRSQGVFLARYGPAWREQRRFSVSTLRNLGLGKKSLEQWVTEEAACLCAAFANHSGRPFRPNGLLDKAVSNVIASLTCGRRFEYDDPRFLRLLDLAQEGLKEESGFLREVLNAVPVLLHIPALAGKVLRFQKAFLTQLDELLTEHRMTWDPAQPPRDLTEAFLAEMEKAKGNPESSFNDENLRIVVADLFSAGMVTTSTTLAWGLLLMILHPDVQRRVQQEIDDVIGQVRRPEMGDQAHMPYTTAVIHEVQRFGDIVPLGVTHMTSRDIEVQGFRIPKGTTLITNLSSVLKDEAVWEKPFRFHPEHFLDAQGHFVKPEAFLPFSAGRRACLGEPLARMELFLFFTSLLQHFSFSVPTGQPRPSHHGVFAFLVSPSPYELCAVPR
Description: as §2

[3] = Microsomal stability, mouse liver microsomes; assay type: in vitro ADME; settings: 0.5 mg/mL protein, read-out: Microsomal stability (T1/2 min) Mouse
Description: as §1

CYP3A4 = CYP3A4 (Homo sapiens (Human), UniProt P08684); test: CYP inhibition, CYP3A4; assay type: in vitro ADME; settings: footnote not given, CYP3A4 metabolites monitored: 1-hydroxy midazolam, 6-β-hydroxy testosterone
CYP3A4, sequence (P08684 whole entry): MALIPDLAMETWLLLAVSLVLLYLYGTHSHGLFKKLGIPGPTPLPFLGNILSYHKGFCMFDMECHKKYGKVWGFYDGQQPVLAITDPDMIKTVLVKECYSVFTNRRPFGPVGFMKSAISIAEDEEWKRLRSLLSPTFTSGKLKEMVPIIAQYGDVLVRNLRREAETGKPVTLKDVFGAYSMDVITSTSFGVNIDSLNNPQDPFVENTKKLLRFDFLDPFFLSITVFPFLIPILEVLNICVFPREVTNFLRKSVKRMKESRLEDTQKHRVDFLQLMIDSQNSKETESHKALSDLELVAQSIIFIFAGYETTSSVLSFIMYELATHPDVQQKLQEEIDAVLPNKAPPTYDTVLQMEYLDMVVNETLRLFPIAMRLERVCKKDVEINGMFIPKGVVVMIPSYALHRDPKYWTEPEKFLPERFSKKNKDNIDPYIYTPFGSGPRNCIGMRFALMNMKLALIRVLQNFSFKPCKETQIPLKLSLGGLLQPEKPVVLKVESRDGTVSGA
Description: as §2

CYP2C19 = CYP2C19 (Homo sapiens (Human), UniProt P33261); test: CYP inhibition, CYP2C19; assay type: in vitro ADME; settings: microsomes, metabolite 4′-hydroxy mephenytoin
CYP2C19, sequence (P33261 whole entry): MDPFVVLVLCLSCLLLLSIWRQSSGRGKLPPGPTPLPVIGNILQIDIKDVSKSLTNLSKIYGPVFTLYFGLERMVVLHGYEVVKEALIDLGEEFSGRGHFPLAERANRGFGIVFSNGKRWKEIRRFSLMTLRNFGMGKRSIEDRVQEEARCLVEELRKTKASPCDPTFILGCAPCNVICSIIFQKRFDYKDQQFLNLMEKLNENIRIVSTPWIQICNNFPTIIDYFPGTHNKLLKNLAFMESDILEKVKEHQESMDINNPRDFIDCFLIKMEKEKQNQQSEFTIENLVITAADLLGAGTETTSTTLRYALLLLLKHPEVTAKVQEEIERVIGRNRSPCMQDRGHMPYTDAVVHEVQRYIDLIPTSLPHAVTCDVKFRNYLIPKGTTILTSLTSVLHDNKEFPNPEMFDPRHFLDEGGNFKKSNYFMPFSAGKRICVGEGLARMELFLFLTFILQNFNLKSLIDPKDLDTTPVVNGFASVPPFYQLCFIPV
Description: as §2

[4] = read-out: Percent Inhibition Mean (%)
[5] = read-out: Percent Inhibition Trial I
[6] = read-out: Percent Inhibition Trial II
[7] = CYP3A4^a, read-out: CYP IC50 uM CYP3A4^a

**Q.** Which half-life at 0.5 µM [1] does the source give for `O=C(c1ccncc1)C1CCCN(Cc2ccccc2)C1` (stereo not drawn) [IV-6] here?
**A.** 10 to 30 min

**Q.** And the half-life at 0.5 µM [2]?
**A.** < 10 min

**Q.** And the IC50 (CYP2C9)?
**A.** 5 to 20 µM

**Q.** And the inhibition at 1 µM (hERG (IKr current); [4])?
**A.** 2.37%

**Q.** What about the inhibition at 1 µM (hERG (IKr current); [5]) of the same molecule?
**A.** 0%

**Q.** And the inhibition at 1 µM (hERG (IKr current); [6])?
**A.** 4.74%

**Q.** What about the inhibition at 3 µM (hERG (IKr current); [4]) of the same molecule?
**A.** 0%

**Q.** And the inhibition at 3 µM (hERG (IKr current); [5])?
**A.** 0%

**Q.** What about the inhibition at 3 µM (hERG (IKr current); [6]) of the same molecule?
**A.** 0%

**Q.** And the inhibition at 10 µM (hERG (IKr current); [4])?
**A.** 10.2%

**Q.** What about the inhibition at 10 µM (hERG (IKr current); [5]) of the same molecule?
**A.** 7.16%

**Q.** And the inhibition at 10 µM (hERG (IKr current); [6])?
**A.** 13.1%

**Q.** What about the inhibition at 30 µM (hERG (IKr current); [4]) of the same molecule?
**A.** 35.5%

**Q.** And the inhibition at 30 µM (hERG (IKr current); [5])?
**A.** 39.9%

**Q.** And the inhibition at 30 µM (hERG (IKr current); [6])?
**A.** 31.1%

**Q.** And the IC50 (hERG)?
**A.** 44.6 µM

**Q.** And the IC50 (CYP1A2)?
**A.** 20 to 50 µM

**Q.** What about the IC50 (CYP2D6) of the same molecule?
**A.** ≤ 5 µM

**Q.** What about the half-life at 0.5 µM [3] of the same molecule?
**A.** < 10 min

**Q.** What about the IC50 (CYP3A4; [7]) of the same molecule?
**A.** ≤ 5 µM

**Q.** What about the IC50 (CYP3A4; read-out: CYP IC50 uM CYP3A4^b) of the same molecule?
**A.** 5 to 20 µM

**Q.** And the IC50 (CYP2C19)?
**A.** ≤ 5 µM

**Q.** Which half-life at 0.5 µM [1] does the source give for `O=C(c1ccc(Cl)cc1)C1CCCN(C(=O)c2ccccc2)C1` (stereo not drawn) [Compound V-4] here?
**A.** 10 to 30 min

**Q.** And the half-life at 0.5 µM [2]?
**A.** < 10 min

**Q.** And the IC50 (CYP2C9)?
**A.** 5 to 20 µM

**Q.** And the inhibition at 1 µM (hERG (IKr current); [4])?
**A.** 13.2%

**Q.** What about the inhibition at 1 µM (hERG (IKr current); [5]) of the same molecule?
**A.** 16.2%

**Q.** What about the inhibition at 1 µM (hERG (IKr current); [6]) of the same molecule?
**A.** 10.2%

**Q.** And the inhibition at 3 µM (hERG (IKr current); [4])?
**A.** 18.8%

**Q.** And the inhibition at 3 µM (hERG (IKr current); [5])?
**A.** 20.5%

**Q.** And the inhibition at 3 µM (hERG (IKr current); [6])?
**A.** 17%

**Q.** And the inhibition at 10 µM (hERG (IKr current); [4])?
**A.** 23.1%

**Q.** What about the inhibition at 10 µM (hERG (IKr current); [5]) of the same molecule?
**A.** 26.4%

**Q.** And the inhibition at 10 µM (hERG (IKr current); [6])?
**A.** 19.8%

**Q.** And the inhibition at 30 µM (hERG (IKr current); [4])?
**A.** 39.1%

**Q.** What about the inhibition at 30 µM (hERG (IKr current); [5]) of the same molecule?
**A.** 39.5%

**Q.** What about the inhibition at 30 µM (hERG (IKr current); [6]) of the same molecule?
**A.** 38.7%

**Q.** What about the IC50 (hERG) of the same molecule?
**A.** 76 µM

**Q.** What about the IC50 (CYP1A2) of the same molecule?
**A.** ≤ 5 µM

**Q.** And the IC50 (CYP2D6)?
**A.** ≤ 5 µM

**Q.** And the half-life at 0.5 µM [3]?
**A.** < 10 min

**Q.** What about the IC50 (CYP3A4; [7]) of the same molecule?
**A.** > 50 µM

**Q.** And the IC50 (CYP3A4; read-out: CYP IC50 uM CYP3A4^b)?
**A.** 20 to 50 µM

**Q.** What about the IC50 (CYP2C19) of the same molecule?
**A.** ≤ 5 µM

**Q.** Which half-life at 0.5 µM [1] does the source give for `O=C(c1ncccn1)C1CCCN(Cc2ccccc2)C1` (stereo not drawn) [IV-7] here?
**A.** ≥ 30 min

**Q.** What about the half-life at 0.5 µM [2] of the same molecule?
**A.** 10 to 30 min

**Q.** And the IC50 (CYP2C9)?
**A.** > 50 µM

**Q.** And the inhibition at 1 µM (hERG (IKr current); [4])?
**A.** 0%

**Q.** And the inhibition at 1 µM (hERG (IKr current); [5])?
**A.** 0%

**Q.** And the inhibition at 1 µM (hERG (IKr current); [6])?
**A.** 0%

**Q.** What about the inhibition at 3 µM (hERG (IKr current); [4]) of the same molecule?
**A.** 0.73%

**Q.** And the inhibition at 3 µM (hERG (IKr current); [5])?
**A.** 1.46%

**Q.** And the inhibition at 3 µM (hERG (IKr current); [6])?
**A.** 0%

**Q.** And the inhibition at 10 µM (hERG (IKr current); [4])?
**A.** 1.99%

**Q.** And the inhibition at 10 µM (hERG (IKr current); [5])?
**A.** 3.44%

**Q.** What about the inhibition at 10 µM (hERG (IKr current); [6]) of the same molecule?
**A.** 0.54%

**Q.** What about the inhibition at 30 µM (hERG (IKr current); [4]) of the same molecule?
**A.** 21.6%

**Q.** And the inhibition at 30 µM (hERG (IKr current); [5])?
**A.** 17.2%

**Q.** What about the inhibition at 30 µM (hERG (IKr current); [6]) of the same molecule?
**A.** 25.9%

**Q.** And the IC50 (hERG)?
**A.** 73.2 µM

**Q.** What about the IC50 (CYP1A2) of the same molecule?
**A.** > 50 µM

**Q.** And the IC50 (CYP2D6)?
**A.** 5 to 20 µM

**Q.** And the half-life at 0.5 µM [3]?
**A.** ≥ 30 min

**Q.** What about the IC50 (CYP3A4; [7]) of the same molecule?
**A.** > 50 µM

**Q.** And the IC50 (CYP3A4; read-out: CYP IC50 uM CYP3A4^b)?
**A.** > 50 µM

**Q.** What about the IC50 (CYP2C19) of the same molecule?
**A.** > 50 µM
